In patent publication US11723886B2, “Targeting ocular diseases with novel APE1/Ref-1 inhibitors” (Indiana University Research and Technology Corporation, priority 2018, dated 2023):

Tests used:
Rf/6a cells = test: Matrigel tube formation assay, Rf/6a; assay type: cell-based, macaque; conditions: mid nanomolar concentrations, vs control
Experimental: (§1) In vitro Matrigel tube formation assay. The ability of HRECs and Rf/6a cells to form tubes in vitro was monitored as described before (Basavarajappa et al., PLoS One 9:e95694 (2014); Basavarajappa et al., EMBO Mol Med 9:786-801 (2017)). Briefly, cells were treated with the indicated concentrations of APX2009 or APX2014 compounds or DMSO for 48 hours and then 1.5×10^4 cells in 100 μL of growth medium containing DMSO or APX compounds were added to each well of a 96-well plate that was pre-coated with 50 μL of Matrigel basement membrane (DMSO final concentration=1%). Digital photographs of each well at different time points were taken to measure the in vitro tube formation using the Angiogenesis Analyzer plugin in ImageJ software (v.1.48; http://image.bio.methods.free.fr/ImageJ/?Angiogenesis-Analyzer-for-ImageJ.html).

[1] = tested on: laser-induced choroidal neovascularization
HRECs [2] = test: TUNEL apoptosis assay in HRECs; assay type: cell-based, human; conditions: anti-proliferative doses
Experimental: (§2) EdU incorporation, Ki-67 Staining and TUNEL. These assays were carried out as described previously (Basavarajappa et al., PLoS One 9:e95694 (2014); Basavarajappa et al., EMBO Mol Med 9:786-801 (2017)) with the exception of using chamber slides, not coverslips. Briefly, cells (30,000 per well) were seeded on 8-well chamber slides coated with attachment factors and allowed to attach overnight. Cells were treated with the indicated compound concentrations for 17 hours (overnight). To assay proliferation, cells were incubated with EdU in complete media for 8 hours at 37° C. Cells were then fixed in 4% paraformaldehyde for 20 minutes and permeabilized using 0.25% Triton X-100 prepared in PBS. Cells were incubated with a rabbit-specific monoclonal antibody against Ki-67 (D3B5) (#9129; Cell Signaling, Danvers, Mass.) (1:400) overnight at 4° C. Secondary antibody was Alexa Fluor goat anti-rabbit 488 (A11034; Invitrogen, Carlsbad, Calif.) with DAPI counter-stain for nuclear staining. Proliferating cells that incorporated EdU were detected using the Click-iT EdU Imaging kit (Invitrogen, Carlsbad, Calif.). […] The cells were imaged using a Zeiss AxioImager D2 microscope or an LSM 700 confocal microscope and the percentage of positive cells was counted on three low-power (for TUNEL) or high-power (for Ki-67 and EdU) fields per well using ImageJ software.

[3] = tested on: human retinal microvascular endothelial cells (HRECs); test: In vitro cell proliferation assay (alamarBlue), HRECs; assay type: cell-based; conditions: HREC, read-out: GI50 (median growth inhibition), HRECs
Experimental: Cells. Primary human retinal microvascular endothelial cells (HRECs) were obtained from Cell Systems, Inc. (Kirkland, Wash.), while the Rf/6a macacque choroidal endothelial cell line was obtained from ATCC (Manassas, Va.). Cells were maintained as described (Basavarajappa et al., EMBO Mol Med 9:786-801 (2017)), re-ordered at least annually, and regularly assessed for mycoplasma contamination.
In vitro cell proliferation assay. Endothelial cell proliferation was measured as described previously (Basavarajappa et al., PLoS One 9:e95694 (2014); Basavarajappa et al., EMBO Mol Med 9:786-801 (2017)). Briefly, 2.5×10^3 cells were seeded in 100 μL of growth medium and plated in each well of 96-well clear-bottom black plates and incubated for 24 hours. APX2009, APX2014, or DMSO vehicle (DMSO final concentration=1%) was added, and the plates were incubated for 24-48 hours in 100 μL complete medium at 37° C. and 5% CO2. AlamarBlue reagent (11.1 μL) was added to each well of the plate and 4 hours later fluorescence readings were taken at excitation and emission wavelengths of 560 nm and 590 nm, respectively, using a Synergy H1 plate reader (BioTek, Winooski, Vt.). GI50 was calculated using GraphPad Prism v. 7.0.

Ref-1 = Ref-1 (Homo sapiens, UniProt P27695); test: Electrophoretic mobility shift assay (redox EMSA), Ref-1-induced AP-1 DNA binding; assay type: biochemical; conditions: 30 min pre-incubation with purified Ref-1, read-out: IC50 for redox EMSA inhibition
Chain of Ref-1 (P27695 whole entry): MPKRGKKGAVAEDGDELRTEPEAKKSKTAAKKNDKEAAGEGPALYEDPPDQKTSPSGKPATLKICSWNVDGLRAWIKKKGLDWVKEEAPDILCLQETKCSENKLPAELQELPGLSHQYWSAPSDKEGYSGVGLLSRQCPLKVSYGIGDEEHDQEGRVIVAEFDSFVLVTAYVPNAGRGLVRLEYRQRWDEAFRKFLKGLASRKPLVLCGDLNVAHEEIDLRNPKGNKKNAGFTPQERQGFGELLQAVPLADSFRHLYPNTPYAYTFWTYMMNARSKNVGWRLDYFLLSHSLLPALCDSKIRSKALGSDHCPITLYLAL
Experimental: Electrophoretic mobility shift assays (EMSA). These assays were performed as previously described (Luo et al., Antioxid Redox Signal 10:18531867 (2008); Kelley et al., Antioxid Redox Signal 14:1387-1401 (2011); Su et al., Biochemistry 50:82-92 (2011); Luo et al., Biochemistry 51:695-705 (2012); Zhang et al., Biochemistry 52:2955-2966 (2013)). […] The EMSA assay was performed using the AP-1 target DNA sequence and AP-1 protein.

HRECs [4] = test: EdU incorporation and Ki-67 staining in HRECs; assay type: cell-based, human
Experimental: as §2

HRECs [5] = test: Propidium iodide cell cycle analysis in HRECs; assay type: cell-based, human; conditions: high doses, 24 hours
Experimental: Cell cycle analysis. HRECs (2×10^6) were grown in EGM-2 medium. Cells were serum starved in EBM-2 medium overnight, then treated with the indicated concentrations of APX2009 or APX2014 along with DMSO control for 24 hours in complete medium. Cells were washed twice in ice-cold PBS followed by fixation in 66% ethanol solution overnight at 4° C. Fixed cells were again washed twice in ice-cold PBS and the pellets were resuspended in propidium iodide staining solution for 30 minutes at 37° C. (20 μg/mL propidium iodide prepared in 1×PBS containing 0.1% Triton X-100 and 100 μg/mL RNase A). After incubation cells were analyzed using flow cytometry (FACSCalibur, BD Biosciences, San Jose, Calif.). Pulse shape analysis was used to exclude doublets and debris. The single cell population was then assessed by the FL2 area histogram plot using ModFit software (v. 5.0) and cell cycle profiles were generated.

HRECs [6] = test: Matrigel tube formation assay, HRECs; assay type: cell-based, human; conditions: mid nanomolar concentrations, vs control
Experimental: as §1

HRECs [7] = test: Scratch wound cell migration assay, HRECs; assay type: cell-based, human
Experimental: In vitro cell migration assay. Endothelial cell migration was monitored as described before (Basavarajappa et al., PLoS One 9:e95694 (2014); Basavarajappa et al., EMBO Mol Med 9:786-801 (2017)). Briefly, HRECs and Rf/6a were grown until confluency in 12-well plates. Using a sterile 10-μL micropipette tip, a scratch wound was made across the center of each well and fresh complete media containing DMSO or different concentrations of APX2009 or APX2014 compounds were added to the wells (DMSO final concentration=1%). Wells were imaged via digital brightfield microscopy at different time points, and the number of migrated cells into the scratched area was manually counted.

Row | SMILES | ability to form tubes, Rf/6a (Rf/6a cells) | L-CNV on systemic administration (summary statement) [1] | apoptosis by TUNEL (HRECs [2]) | GI50 [3] [nM] | IC50 (Ref-1) [nM] | cells going through S phase (Ki-67 staining, EdU incorporation) (HRECs [4]) | cell cycle phase distribution (HRECs [5]) | ability to form tubes, HRECs (HRECs [6]) | cell migration in scratch wound assay, HRECs (HRECs [7]) | fluorescein leakage in lesions (fluorescein angiography) ([1]; 25 mg/kg i.p., Day 14) | intraocular or systemic toxicity in vivo ([1]; i.p. dosing in L-CNV mice) | effect on L-CNV ([1]; i.p., 12.5 mg/kg twice daily for two weeks)
1 | CCC/C(=C\C1=C(OC)C(=O)c2ccccc2C1=O)C(=O)NOC [APX2014, (2E)-2-[(3-methoxy-1,4-dioxo-1,4-dihydronapthalen-2-yl)methylidene]-N-methoxypentanamide] | significantly reduced | can attenuate L-CNV | neither compound induced apoptosis | 110 | 200 | reduced the number of cells going through S phase | modest increase in cells in G0/G1 phase | significantly reduced | significantly inhibited |  |  | 
2 | CCC/C(=C\C1=C(OC)C(=O)c2ccccc2C1=O)C(=O)N(CC)CC [APX2009, (2E)-2-[(3-methoxy-1,4-dioxo-1,4-dihydronaphthalen-2-yl)methylidene]-N,N-diethylpentanamide] | significantly reduced | can attenuate L-CNV | neither compound induced apoptosis | 1100 | 450 | reduced the number of cells going through S phase | modest increase in cells in G0/G1 phase | significantly reduced | significantly inhibited | qualitatively less fluorescein leakage | not observed obvious intraocular or systemic toxicity | did not reduce L-CNV
